Data taken from patent US20200397808A1, “TREATMENT OF STEROID-RESISTANT DISEASE USING AN ANTHOCYANIN AND A CORTICOSTEROID” (THE CLEVELAND CLINIC FOUNDATION, priority 2017, published 2020).

How the values were obtained:
[1] = tested on: Th17-induced neutrophilic airway inflammation; assay: Th17 cell-mediated neutrophilic asthma model; type: in vivo, C57BL/6 mice; conditions: C3G alone, 200 μg i.p./100 μg i.n per mouse
Method: FIGS. 3A and 3B provide graphs showing C3G attenuates neutrophilic airway inflammation in a Th17-induced asthma model. A. HDM/CFA-induced neutrophilic asthma in 8-week female C57BL/6 mice (n=5 per group). B. Shown are total and differential cell counts in BAL cell count. HDM, house dust mite. Treatment groups: Control (DMSO); Low DEX (0.3 mg/kg BW, i.p.); C3G (200 μg i.p./100 μg i.n per mouse); Low DEX/C3G. DEX and C3G were delivered to mice 1 h before HDM challenges. Mice were sacrificed after the last HDM challenge.
C3G attenuates neutrophilic airway inflammation in a Th17-induced asthma model. To further confirm the synergistic effect of DEX/C3G in IL-17A-driven asthma, the efficacy of C3G was tested in a TH17 cell-mediated neutrophilic asthma model (FIG. 3).

[2] = molecular target: T1, IL-17A and IL-17ARA (IL-17A receptor subunit) interaction (Homo sapiens, UniProt Q96F46); assay: IL-17A binding to IL-17ARA inhibition; conditions: read-out: IC50, inhibitory activity for IL-17A binding to IL-17ARA
T1 sequence (Q96F46 33-320 limits assumed): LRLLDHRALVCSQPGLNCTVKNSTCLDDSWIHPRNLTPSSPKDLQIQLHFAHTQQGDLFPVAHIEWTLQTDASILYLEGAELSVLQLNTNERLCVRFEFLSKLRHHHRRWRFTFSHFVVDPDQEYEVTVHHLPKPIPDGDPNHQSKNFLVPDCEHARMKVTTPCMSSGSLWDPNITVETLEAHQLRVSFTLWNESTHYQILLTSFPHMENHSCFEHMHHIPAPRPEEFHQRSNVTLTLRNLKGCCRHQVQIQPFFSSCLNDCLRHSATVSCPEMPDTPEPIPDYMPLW

[3] = tested on: HDM-induced neutrophilic airway inflammation; assay: HDM/CFA-induced acute neutrophilic steroid-resistant severe asthma model; type: in vivo, C57BL/6 mice; parameters: airway inflammation (BAL cell count, inflammatory gene expression in the lung): dose or concentration left out as unconfirmed
Method: FIGS. 1A and 1B provide graphs showing C3G attenuates neutrophilic airway inflammation in a HDM-induced acute asthma model. A. HDM/CFA-induced neutrophilic asthma in 8-week female C57BL/6 mice (n=8 per group). B. Shown are total and differential cell counts in BAL cell count. HDM, house dust mite. […] DEX and C3G were delivered to mice 24 h before HDM sensitization and 1 h before HDM challenge. Mice were sacrificed after HDM challenge. i.p., intraperitoneally; i.n. intranasally.
FIGS. 2A and 2B provide graphs showing Oral C3G attenuates neutrophilic airway inflammation in a HDM-induced acute asthma model. A. HDM/CFA-induced neutrophilic asthma in 8-week female C57BL/6 mice (n=5 per group). B. Shown are total and differential cell counts in BAL cell count. HDM, house dust mite. Treatment groups: Control (DMSO); Low DEX (0.3 mg/kg BW, i.p.); Low DEX+10 mg C3G (per mouse); Low DEX+20 mg C3G (per mouse); DEX and C3G were delivered to mice 24 h before HDM sensitization and 1 h before HDM challenge. Mice were sacrificed after HDM challenge.
C3G attenuates neutrophilic airway inflammation in a HDM-induced acute asthma model. House dust mite (HDM), a natural allergen to which asthmatics are often sensitized, can induce neutrophilic airway inflammation, which is often associated with steroid-resistant severe asthma. The inventors have established an HDM/CFA-induced neutrophilic severe asthma model. The ability of C3G in combination with low-dose DEX (low DEX) was evaluated in alleviating neutrophilic airway inflammation in a HDM-induced steroid-resistant severe asthma model. Eight-week WT C57BL/6 female mice were sensitized subcutaneously (s.c.) with HDM (100 μg per mouse) in Complete Freund's Adjuvant (CFA) on day 0 and subsequently challenged (i.n.) with HDM (100 μg per mouse) on day 14. BAL cell counting and tissue collection were performed after 24 h of last HDM challenge. […]

Structure (SMILES): OC[C@H]1O[C@@H](Oc2cc3c(O)cc(O)cc3[o+]c2-c2ccc(O)c(O)c2)[C@H](O)[C@@H](O)[C@@H]1O [C3G, Cyanidin-3-glucoside]
- neutrophilic airway inflammation (BAL cell count) [1]: alleviated the inflammation dramatically
- IC50 [2]: 6.88 µM
- airway inflammation (BAL cell count, inflammatory gene expression in the lung) ([3]; C3G alone): reduced to some degree
- airway inflammation (BAL cell count) ([3]; oral C3G 20 mg/mouse in the presence of low DEX, versus 10 mg/mouse): did not improve the efficacy further
- airway inflammation (BAL cell count) ([3]; oral C3G by gavage 10 mg/mouse in the presence of low DEX): able to inhibit airway inflammation
